{
  "source": "paper PMC5512002",
  "about": "(Cellular signalling, 2017)",
  "biological_target": "T1, GPR55 (Rattus norvegicus, UniProt F1MAK4)",
  "T1 sequence (F1MAK4 1-319)": "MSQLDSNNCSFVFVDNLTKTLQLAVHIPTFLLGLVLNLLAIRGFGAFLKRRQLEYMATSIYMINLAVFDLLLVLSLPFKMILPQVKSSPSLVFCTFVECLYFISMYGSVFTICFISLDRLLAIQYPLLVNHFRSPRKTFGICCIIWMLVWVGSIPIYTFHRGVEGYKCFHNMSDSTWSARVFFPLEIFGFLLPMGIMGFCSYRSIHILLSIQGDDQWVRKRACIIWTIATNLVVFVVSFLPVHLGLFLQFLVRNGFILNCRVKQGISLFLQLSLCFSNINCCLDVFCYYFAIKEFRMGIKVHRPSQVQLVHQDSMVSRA",
  "assay": "inhibition of uptake of fluorescent GPR55 ligand T1117 in live C6 cells",
  "format": "cell-based",
  "data": [
    {"smiles": "COc1ccc(C[C@@H](C)NC[C@H](O)c2cc(O)cc(O)c2)c2ccccc12", "note": "[(R,R′)-MNF]", "values": [
      {"measurement": "IC50", "result": 320, "unit": "nM"}
    ]}
  ]
}
